Values of other authors, collected in patent US20090312439A1, “USE OF ROLL COMPACTED PYROGENICALLY PRODUCED SILICON DIOXIDE IN PHARMACEUTICAL COMPOSITIONS” (priority 2006, published 2009).

Compound: C#C[C@]1(O)CC[C@H]2[C@@H]3CCc4cc(O)ccc4[C@H]3CC[C@@]21C [ethinyl oestradiol]
- saturation equilibrium value (pure active constituent in water, reached only after shaking over several days): 1.1 mg/100 ml
- release of active constituent on contact with water (sorbate of 5.2 mg on 100 mg pyrogenic silicic acid (AEROSIL 200)): supersaturated solution is formed
